Data reported in patent US8420660B2, “Antitubercular alkaloid” (priority 2011, dated 2013).

Tests used:
[1] = tested on: VERO cell; assay type: cell-based; details: VERO cell CC50 (72 hours exposure) / M. tuberculosis H37Rv IC90
[2] = tested on: Mycobacterium tuberculosis H37Rv (ATCC 27294); test: Primary screen (dose response), Microplate Alamar Blue Assay (MABA), IC90; assay type: cell-based; details: M. tuberculosis H37Rv, BACTEC 12B medium, Level-I assay
Experimental: Primary Screen (Dose Response): Determination of a 90% Inhibitory Concentration (IC90). The initial screen is conducted against Mycobacterium tuberculosis H37Rv (ATCC 27294) in BACTEC 12B medium using the Microplate Alamar Blue Assay (MABA). Compounds are tested in ten 2-fold dilutions, typically from 100 μg/mL to 0.19 μg/mL. The IC90 is defined as the concentration effecting a reduction in fluorescence of 90% relative to controls. This value is determined from the dose-response curve using a curve-fitting program. Any IC90 value of ≦10 μg/mL is considered “Active” for antitubercular activity.

## 10,12-diheptanoyl-11-hydroxy-3-methyl-β-carboline [Compound I]
[1]
  Selectivity Index (SI) = CC50 divided by IC90: > 105.48
[2]
  IC90 (90% inhibitory concentration), antituberculosis activity: 0.948 µg/mL
